Patent US20230233569A1 (Revolution Medicines, Inc., priority 2020, published 2023)
Read-outs that look alike come from different tables or passages of the source.

Tests used:
[1] = tested on: AKT1/2/3 (Ser473) phosphorylation (mTORC2) in MDA-MB-468 cells; assay: Cell based AlphaLISA assay, mTOR kinase cellular assay: inhibition of p-Akt (S473) in MDA-MB-468 cells; settings: Homo sapiens, read-out: pIC50 for Inhibition of mTORC1 and mTORC2 Substarte Phosphorylation p-AKT1/2/3-(S473) (converted)
Method: (§1) Cell Based AlphaLISA Assays for Determining IC50 For Inhibition of P-Akt (S473), P-4E-BP1 (T37/46), and P-P70S6K (T389) in MDA-MB-468 Cells
(§2) mTOR Kinase Cellular Assay
(§3) To measure functional activity of mTORC1 and mTORC2 in cells the phosphorylation of 4EBP1 (Thr37/46) and P70S6K (Thr389), and AKT1/2/3 (Ser473) was monitored using AlphaLisa SureFire Ultra Kits (Perkin Elmer). MDA-MB-468 cells (ATCC® HTB-132) were cultured in 96-well tissue culture plates and treated with compounds in the disclosure at concentrations varying from 0.017-1,000 nM for two to four hours at 37° C. Incubations were terminated by removal of the assay buffer and addition of lysis buffer provided with the assay kit. Samples were processed according to the manufacturer's instructions. The Alpha signal from the respective phosphoproteins was measured in duplicate using a microplate reader (Envision, Perkin-Elmer or Spectramax M5, Molecular Devices). Inhibitor concentration response curves were analyzed using normalized IC50 regression curve fitting with control based normalization.

[2] = tested on: 4EBP1 (Thr37/46) phosphorylation (mTORC1) in MDA-MB-468 cells; assay: Cell based AlphaLISA assay, mTOR kinase cellular assay: inhibition of p-4E-BP1 (T37/46) in MDA-MB-468 cells; settings: Homo sapiens, read-out: pIC50 for Inhibition of mTORC1 and mTORC2 Substarte Phosphorylation p-4E-BP1-(T37/46) (converted)
Method: as §1, §2, §3

[3] = target: KRAS G12S (Homo sapiens, UniProt P01116+P62937, G12S); assay: Ras-Raf disruption / FRET / MOA assay (BRAF RBD); format: biochemical; settings: with Cyclophilin A
Chain of KRAS G12S (P01116 1-169 isoform P01116-2 G12S limits assumed): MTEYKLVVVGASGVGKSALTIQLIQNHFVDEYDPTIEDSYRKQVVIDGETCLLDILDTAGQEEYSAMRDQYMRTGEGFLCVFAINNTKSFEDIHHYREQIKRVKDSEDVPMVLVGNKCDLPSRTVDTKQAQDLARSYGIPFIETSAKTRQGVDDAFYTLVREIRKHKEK
Chain of KRAS G12S (P62937 whole entry): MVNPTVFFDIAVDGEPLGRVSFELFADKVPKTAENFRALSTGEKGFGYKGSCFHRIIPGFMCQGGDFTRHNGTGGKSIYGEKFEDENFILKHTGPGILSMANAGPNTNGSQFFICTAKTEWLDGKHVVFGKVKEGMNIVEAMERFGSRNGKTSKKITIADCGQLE
Outline: (§4)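 Compound-induced Ras–Cyclophilin A ternary complex disrupting BRAF RBD binding, read as IC50 from reduced TR-FRET ratio relative to DMSO. Final: Ras-GMPPNP 12.5 nM, BRAF RBD 50 nM, Cyclophilin A 25 μM, top compound 30 μM (3-fold, 10 points); 3 h at 25 °C, then 1.5 h with detection antibodies.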

[4] = target: NRAS G12C (Homo sapiens, UniProt P01111+P62937, G12C); assay: Ras-Raf disruption / FRET / MOA assay (BRAF RBD); format: biochemical
Chain of NRAS G12C (P01111 whole entry G12C): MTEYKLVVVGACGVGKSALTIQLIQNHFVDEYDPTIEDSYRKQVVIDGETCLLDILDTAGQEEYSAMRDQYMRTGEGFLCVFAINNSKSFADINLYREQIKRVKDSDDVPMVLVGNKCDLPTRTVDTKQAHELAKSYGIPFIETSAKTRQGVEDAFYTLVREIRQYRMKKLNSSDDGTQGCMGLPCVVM
Chain of NRAS G12C (P62937 whole entry): as the sequence (P62937 whole entry) above
Outline: as §4

[5] = target: KRAS G13D (Homo sapiens, UniProt P01116+P62937, G13D); assay: Ras-Raf disruption / FRET / MOA assay (BRAF RBD); format: biochemical; settings: with Cyclophilin A
Chain of KRAS G13D (P01116 1-169 isoform P01116-2 G13D limits assumed): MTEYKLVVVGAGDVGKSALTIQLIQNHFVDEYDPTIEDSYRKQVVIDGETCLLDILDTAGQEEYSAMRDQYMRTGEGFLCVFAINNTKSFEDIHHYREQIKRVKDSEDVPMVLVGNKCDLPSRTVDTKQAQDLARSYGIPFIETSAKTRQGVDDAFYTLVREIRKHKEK
Chain of KRAS G13D (P62937 whole entry): as the sequence (P62937 whole entry) above
Outline: as §4

[6] = target: KRAS G12V (Homo sapiens, UniProt P01116+P62937, G12V); assay: Ras-Raf disruption / FRET / MOA assay (BRAF RBD); format: biochemical; settings: with Cyclophilin A
Chain of KRAS G12V (P01116 1-169 isoform P01116-2 G12V limits assumed): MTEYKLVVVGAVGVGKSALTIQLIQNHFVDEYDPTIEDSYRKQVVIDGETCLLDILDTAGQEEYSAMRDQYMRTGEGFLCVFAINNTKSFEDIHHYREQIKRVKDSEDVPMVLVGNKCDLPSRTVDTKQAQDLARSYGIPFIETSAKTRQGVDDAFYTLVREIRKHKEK
Chain of KRAS G12V (P62937 whole entry): as the sequence (P62937 whole entry) above
Outline: as §4

[7] = target: KRAS G13C (Homo sapiens, UniProt P01116+P62937, G13C); assay: Ras-Raf disruption / FRET / MOA assay (BRAF RBD); format: biochemical; settings: with Cyclophilin A
Chain of KRAS G13C (P01116 1-169 isoform P01116-2 G13C limits assumed): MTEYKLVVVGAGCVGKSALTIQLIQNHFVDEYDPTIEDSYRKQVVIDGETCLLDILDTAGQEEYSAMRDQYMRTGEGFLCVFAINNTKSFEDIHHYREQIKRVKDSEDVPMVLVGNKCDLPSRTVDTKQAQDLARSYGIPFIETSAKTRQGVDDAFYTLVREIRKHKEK
Chain of KRAS G13C (P62937 whole entry): as the sequence (P62937 whole entry) above
Outline: as §4

[8] = target: KRAS WT (Homo sapiens, UniProt P01116+P62937); assay: Ras-Raf disruption / FRET / MOA assay (BRAF RBD); format: biochemical; settings: with Cyclophilin A
Chain of KRAS WT (P01116 1-169 isoform P01116-2 limits assumed): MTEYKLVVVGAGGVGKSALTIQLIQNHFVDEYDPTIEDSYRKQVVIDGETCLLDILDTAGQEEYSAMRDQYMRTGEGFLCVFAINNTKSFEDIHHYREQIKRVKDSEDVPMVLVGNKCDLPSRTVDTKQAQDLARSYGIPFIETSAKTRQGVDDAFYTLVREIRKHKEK
Chain of KRAS WT (P62937 whole entry): as the sequence (P62937 whole entry) above
Outline: as §4

[9] = target: KRAS G12D (Homo sapiens, UniProt P01116+P62937, G12D); assay: Ras-Raf disruption / FRET / MOA assay (BRAF RBD); format: biochemical; settings: with Cyclophilin A
Chain of KRAS G12D (P01116 1-169 isoform P01116-2 G12D limits assumed): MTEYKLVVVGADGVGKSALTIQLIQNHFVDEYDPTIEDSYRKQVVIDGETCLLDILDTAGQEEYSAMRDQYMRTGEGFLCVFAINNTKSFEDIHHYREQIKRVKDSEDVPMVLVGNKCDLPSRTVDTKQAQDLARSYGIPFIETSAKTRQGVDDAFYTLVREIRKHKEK
Chain of KRAS G12D (P62937 whole entry): as the sequence (P62937 whole entry) above
Outline: as §4

[10] = tested on: AsPC-1 (K-Ras G12D); assay: CellTiter-Glo cell viability assay; format: cell-based; settings: Homo sapiens, ASPC1, 120 h
Outline: (§5)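 Luminescent viability readout on day 5, plates first brought to room temperature for ~30 min; compounds added straight to plated RAS-mutant cells. Values expressed as percent of mean DMSO signal, curves fitted with a four-parameter logistic model.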

[11] = tested on: NCI-H358 (K-Ras G12C); assay: CellTiter-Glo cell viability assay; format: cell-based; settings: Homo sapiens, NCI-H358, 120 h
Outline: as §5

[12] = target: KRAS G12C (Homo sapiens, UniProt P01116+P62937, G12C); assay: Ras-Raf disruption / FRET / MOA assay (BRAF RBD); format: biochemical; settings: with Cyclophilin A
Chain of KRAS G12C (P01116 1-169 isoform P01116-2 G12C limits assumed): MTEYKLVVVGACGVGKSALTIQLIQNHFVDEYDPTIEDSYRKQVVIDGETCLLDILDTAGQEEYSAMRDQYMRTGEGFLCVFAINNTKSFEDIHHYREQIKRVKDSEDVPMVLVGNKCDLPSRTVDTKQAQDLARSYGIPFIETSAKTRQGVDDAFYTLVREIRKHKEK
Chain of KRAS G12C (P62937 whole entry): as the sequence (P62937 whole entry) above
Outline: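 TR-FRET read-out after 1.5 h with anti-His Eu-W1024 (10 nM) and anti-GST APC (50 nM), following 3 h at 25 °C of compound (top 30 μM, 3-fold, 10 points) with 25 μM Cyclophilin A, 12.5 nM GMPPNP-loaded K-Ras G12C and 50 nM BRAF RBD; IC50 reported.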

[13] = target: KRAS Q61H (Homo sapiens, UniProt P01116+P62937, Q61H); assay: Ras-Raf disruption / FRET / MOA assay (BRAF RBD); format: biochemical; settings: KRAS Q61H; read-out: KRAS Q61H FRET data IC50
Chain of KRAS Q61H (P01116 1-169 isoform P01116-2 Q61H limits assumed): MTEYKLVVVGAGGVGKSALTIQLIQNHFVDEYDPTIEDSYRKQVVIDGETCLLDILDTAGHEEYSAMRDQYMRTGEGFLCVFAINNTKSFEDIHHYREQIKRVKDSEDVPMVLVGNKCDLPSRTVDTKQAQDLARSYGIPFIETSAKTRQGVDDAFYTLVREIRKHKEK
Chain of KRAS Q61H (P62937 whole entry): as the sequence (P62937 whole entry) above
Outline: as §4

[14] = target: NRAS Q61K (Homo sapiens, UniProt P01111+P62937, Q61K); assay: Ras-Raf disruption / FRET / MOA assay (BRAF RBD); format: biochemical; settings: NRAS Q61K; read-out: NRAS Q61K FRET data IC50
Chain of NRAS Q61K (P01111 whole entry Q61K): as the sequence (P01111 whole entry G12C) above, with C12G, Q61K counted along it
Chain of NRAS Q61K (P62937 whole entry): as the sequence (P62937 whole entry) above
Outline: as §4

[15] = target: NRAS Q61R (Homo sapiens, UniProt P01111+P62937, Q61R); assay: Ras-Raf disruption / FRET / MOA assay (BRAF RBD); format: biochemical; settings: NRAS Q61R; read-out: NRAS Q61R FRET data IC50
Chain of NRAS Q61R (P01111 whole entry Q61R): as the sequence (P01111 whole entry G12C) above, with C12G, Q61R counted along it
Chain of NRAS Q61R (P62937 whole entry): as the sequence (P62937 whole entry) above
Outline: as §4

[16] = target: NRAS WT (Homo sapiens, UniProt P01111+P62937); assay: Ras-Raf disruption / FRET / MOA assay (BRAF RBD); format: biochemical; settings: NRAS WT; read-out: NRAS WT FRET data IC50
Chain of NRAS WT (P01111 whole entry): as the sequence (P01111 whole entry G12C) above, with C12G counted along it
Chain of NRAS WT (P62937 whole entry): as the sequence (P62937 whole entry) above
Outline: as §4

[17] = read-out: H358 Cell Viability assay data IC50, K-Ras G12C, 5-day treatment
[18] = K-Ras G12D, 5-day treatment, read-out: AsPC-1 Cell Viability assay data IC50
[19] = K-Ras G12C, 5-day treatment, read-out: H358 Cell Viability assay data IC50

CO[C@H]1C[C@@H]2CC[C@@H](C)[C@@](O)(O2)C(=O)C(=O)N2CCCC[C@H]2C(=O)O[C@H]([C@H](C)C[C@@H]2CC[C@@H](OC(=O)NCc3cnc(N4CCN(c5ncc(C(=O)N(C)CCOCCOCCOCCOCCC(=O)N6CCc7cc(Cn8nc(-c9ccc%10oc(N)nc%10c9)c9c(N)ncnc98)ccc7C6)c(N)n5)CC4)nc3)[C@H](OC)C2)C[C@@H](OC)[C@H](C)/C=C(\C)[C@@H](O)[C@@H](OC)C(=O)[C@H](C)C[C@H](C)/C=C/C=C/C=C/1C [Example 107]
IC50 [1]: > 1000 nM
IC50 [2]: > 1000 nM

CCn1c(-c2cccnc2[C@H](C)OC)c2c3cc(ccc31)-c1cc(O)cc(c1)C[C@H](NC(=O)[C@H](C(C)C)N(C)C(=O)CN(C)C(=O)[C@H]1CN1CCOC)C(=O)N1CCC[C@H](N1)C(=O)OCC(C)(C)C2 (some centres unmarked) [Example 159]
IC50 ([3]; KRAS G12S FRET data IC50, Ras-Raf disruption): 10 to 100 nM
IC50 ([4]; NRAS G12C FRET data IC50, NRAS G12C): < 10 nM
IC50 ([5]; KRAS G13D FRET data IC50, Ras-Raf disruption): 100 to 1000 nM
IC50 ([6]; KRAS G12V FRET data IC50, Ras-Raf disruption): 10 to 100 nM
IC50 ([7]; KRAS G13C FRET data IC50, Ras-Raf disruption): 10 to 100 nM
IC50 ([8]; KRAS WT FRET data IC50, Ras-Raf disruption): 10 to 100 nM
IC50 ([9]; KRAS G12D FRET data IC50, Ras-Raf disruption): 100 to 1000 nM
IC50 ([10]; read-out: AsPC-1 Cell Viability assay data IC50, K-Ras G12D, 5-day treatment): 100 to 1000 nM
IC50 [11, 17]: < 10 nM
IC50 ([12]; KRAS G12C FRET data IC50, Ras-Raf disruption): 10 to 100 nM

CCn1c(-c2cccnc2[C@H](C)OC)c2c3cc(ccc31)-c1cc(O)cc(c1)C[C@H](NC(=O)[C@H](C(C)C)N(C)C(=O)[C@@]1(C)CCCN1C(=O)[C@@H]1CN1)C(=O)N1CCC[C@H](N1)C(=O)OCC(C)(C)C2 [Example 241]
IC50 [10, 18]: 100 to 1000 nM
IC50 [11, 19]: < 10 nM

CCn1c(-c2cccnc2[C@H](C)OC)c2c3cc(ccc31)-c1cc(cc(C(F)F)c1)C[C@H](NC(=O)[C@H](C1CCCC1)N1CC[C@]3(CCN(C(=O)[C@@H]4N[C@@H]4C4CC4)C3)C1)C(=O)N1CCC[C@H](N1)C(=O)OCC(C)(C)C2 [Example 318]
IC50 ([3]; Ras-Raf disruption, read-out: KRAS G12S FRET data IC50): 1000 to 10000 nM
IC50 ([4]; NRAS G12C, read-out: NRAS G12C FRET data IC50): 1000 to 10000 nM
IC50 ([5]; Ras-Raf disruption, read-out: KRAS G13D FRET data IC50): 1000 to 10000 nM
IC50 ([6]; Ras-Raf disruption, read-out: KRAS G12V FRET data IC50): 1000 to 10000 nM
IC50 [13]: 100 to 1000 nM
IC50 [14]: 1000 to 10000 nM
IC50 ([7]; Ras-Raf disruption, read-out: KRAS G13C FRET data IC50): 100 to 1000 nM
IC50 ([8]; Ras-Raf disruption, read-out: KRAS WT FRET data IC50): 100 to 1000 nM
IC50 [15]: 1000 to 10000 nM
IC50 [16]: 1000 to 10000 nM
IC50 ([9]; Ras-Raf disruption, read-out: KRAS G12D FRET data IC50): 1000 to 10000 nM
IC50 [10, 18]: 100 to 1000 nM
IC50 [11, 19]: 100 to 1000 nM
IC50 ([12]; Ras-Raf disruption, read-out: KRAS G12C FRET data IC50): 100 to 1000 nM

CCn1c(-c2cccnc2COC)c2c3cc(ccc31)-c1cc(O)cc(c1)C[C@H](NC(=O)[C@H](C(C)C)N(C)C(=O)CCNC(=O)NCCCl)C(=O)N1CCC[C@H](N1)C(=O)OCC(C)(C)C2 [Example 25]
IC50 [11, 17]: > 10000 nM

CO[C@H]1C[C@@H]2CC[C@@H](C)[C@@](O)(O2)C(=O)C(=O)N2CCCC[C@H]2C(=O)O[C@H]([C@H](C)C[C@@H]2CC[C@@H](OC(=O)NCc3cnc(N4CCN(c5ncc(C(=O)NCCOCCOCCOCCOCCC(=O)N6CCc7cc(Cn8nc(-c9ccc%10oc(N)nc%10c9)c9c(N)ncnc98)ccc7C6)c(N)n5)CC4)nc3)[C@H](OC)C2)C[C@@H](OC)[C@H](C)/C=C(\C)[C@@H](O)[C@@H](OC)C(=O)[C@H](C)C[C@H](C)/C=C/C=C/C=C/1C [Example 106]
IC50 [1]: > 1000 nM
IC50 [2]: 3.16 to 31.6 nM

CO[C@H]1C[C@@H]2CC[C@@H](C)[C@@](O)(O2)C(=O)C(=O)N2CCCC[C@H]2C(=O)O[C@H]([C@H](C)C[C@@H]2CC[C@@H](OC(=O)NCc3cnc(N4CCN(C(=O)CN(C)CC(=O)NCCOCCOCCC(=O)N5CCc6cc(Cn7nc(-c8ccc9oc(N)nc9c8)c8c(N)ncnc87)ccc6C5)CC4)nc3)[C@H](OC)C2)C[C@@H](OC)[C@H](C)/C=C(\C)[C@@H](O)[C@@H](OC)C(=O)[C@H](C)C[C@H](C)/C=C/C=C/C=C/1C [Example 103]
IC50 [1]: > 1000 nM
IC50 [2]: > 1000 nM

CO[C@H]1C[C@@H]2CC[C@@H](C)[C@@](O)(O2)C(=O)C(=O)N2CCCC[C@H]2C(=O)O[C@H]([C@H](C)C[C@@H]2CC[C@@H](OC(=O)NCc3cnc(N4CCN(c5ncc(C(=O)N6CCN(c7ncc(C(=O)N8CCc9cc(Cn%10nc(-c%11ccc%12oc(N)nc%12c%11)c%11c(N)ncnc%11%10)ccc9C8)cn7)CC6)cn5)CC4)nc3)[C@H](OC)C2)CC(=O)[C@H](C)/C=C(\C)[C@@H](O)[C@@H](OC)C(=O)[C@H](C)C[C@H](C)/C=C/C=C/C=C/1C [Example 60]
IC50 [2]: 3.16 to 31.6 nM

CO[C@H]1C[C@@H]2CC[C@@H](C)[C@@](O)(O2)C(=O)C(=O)N2CCCC[C@H]2C(=O)O[C@H]([C@H](C)C[C@@H]2CC[C@@H](OC(=O)NCc3cnc(N4CCN(C(=O)CCOCCN5CCN(c6ncc(C(=O)NCCCCn7nc(-c8ccc9oc(N)nc9c8)c8c(N)ncnc87)cn6)CC5)CC4)nc3)[C@H](OC)C2)CC(=O)[C@H](C)/C=C(\C)[C@@H](O)[C@@H](OC)C(=O)[C@H](C)C[C@H](C)/C=C/C=C/C=C/1C [Example 54]
IC50 [1]: ≤ 3.16 nM
IC50 [2]: ≤ 3.16 nM

CO[C@H]1C[C@@H]2CC[C@@H](C)[C@@](O)(O2)C(=O)C(=O)N2CCCC[C@H]2C(=O)O[C@H]([C@H](C)C[C@@H]2CC[C@@H](OC(=O)NCc3cnc(N4CCN(C(=O)CCOCCN5CCN(c6ncc(C(=O)N7CCc8cc(Cn9nc(-c%10cnc%11[nH]ccc%11c%10)c%10c(N)ncnc%109)ccc8C7)cn6)CC5)[C@@H](C(=O)O)C4)nc3)[C@H](OC)C2)CC(=O)[C@H](C)/C=C(\C)[C@@H](O)[C@@H](OC)C(=O)[C@H](C)C[C@H](C)/C=C/C=C/C=C/1C [Example 132]
IC50 [1]: 3.16 to 31.6 nM
IC50 [2]: ≤ 3.16 nM
